# Assays:
# Type in all cases: cell-based, human
# [1] = system: retinal progenitor cells dispersed into single cells (KhES-1- and 1231A3-derived aggregates); experiment: Search of aggregate reforming factor: suspension culture of dispersed retinal cells (Example 1); details: added at cell seeding; Y-27632 10 μM or 20 μM; Day 1 to Day 2 of suspension culture
# Description: Human ES cells (KhES-1 strain (Non Patent Literature 3)) and human iPS cells (1231A3 strain, Kyoto University) genetically engineered so as to have Rx::Venus reporter gene were cultured under feeder-free conditions in accordance with the method described in “Scientific Reports, 4, 3594 (2014)”. As a feeder-free medium, StemFit medium (trade name: AK03N, manufactured by Ajinomoto Co., Inc.) was used, and as a scaffold as an alternative to feeder cells, Laminin511-E8 (trade name, manufactured by Nippi, Inc.) was used.
# Specific operation of maintenance culture for human ES and human iPS cells (human ES/iPS cells) was performed as follows: First, human ES/iPS cells that reached sub-confluency (state where about 60% of the culture area was covered by cells) were washed with PBS and separated into single cells by use of TrypLE Select (trade name, manufactured by Life Technologies). In this context, the dispersion into single cells refers to performing dispersion so as to become single cells, and a cell population dispersed into single cells is capable of containing a mass of 2 to 50 cells, in addition to single cells. Then, the separated human ES single cells were seeded in plastic culture dishes coated with Laminin 511-E8 and cultured under feeder-free conditions in StemFit medium in the presence of Y-27632 (ROCK inhibitor, 10 μM). […]
# [2] = system: Rx::Venus-positive cells (KhES-1-derived); experiment: Maintenance culture of retinal cell in Rx::Venus strain (Example 13); details: 20 ng/ml continuously added; after 34 days
# Description: (§1) The aggregates of Day 31 from initiation of the suspension culture prepared as in Example 1 were washed with PBS, and a neuronal cell dispersion solution (manufactured by FUJIFILM Wako Pure Chemical Corp.) was added. After incubation at 37° C., they were dispersed into single cells by pipetting.
# After 34 days, cell sheets were fixed in 4% PFA, and the nuclei were stained using DAPI. Observation was made focusing on the areas of Rx::Venus-positive cells, and the state of maintenance of retinal cells was studied.
# [3] = system: aggregates (NR), KhES-1-derived neural retinal tissues; experiment: Study on enhancement in CD39 expression, FACS (Example 25); details: added Day 17 to Day 25; DMSO control
# Description: For aggregates (NR) prepared by adding 300 nM SAG at the start of differentiation (dd0), 10 neural retinal tissues were transferred to low adhesive 60-mm Petri dish for suspension culture (manufactured by Sumitomo Bakelite Co., Ltd.) on Day 17 from initiation of the suspension culture. 1 mM or 0.2 mM adenosine (A2A receptor agonist, manufactured by Sigma-Aldrich Co. LLC), 1 mM, 0.2 mM, or 0.04 mM AMP-PNP (manufactured by Tocris Bioscience), 5 mM, 1 mM, 0.2 mM, or 0.04 mM ATP disodium salt (manufactured by Tocris Bioscience), and 1μ, 0.2μ, or 0.04μ M CGS 21680 (Adenosine A2A Receptor Agonist, manufactured by Tocris Bioscience) were added into 4 mL of NucT0 medium. Culture was performed up to Day 25 from initiation of the suspension culture. Change in expression of CD39 and CXCR4 was stained using Mouse IgG1-APC conjugate antibody (Miltenyi Biotec), anti-CD39-BV421 conjugate antibody (BD Biosciences) and anti-CXCR4-APC conjugate antibody (Miltenyi Biotec) and measured using FACSCantoII (BD Biosciences), and analysis was conducted using FlowJo. As a control, a DMSO addition group was established.
# [4] = system: Rx::Venus-sorted cells (KhES-1-derived NR, Day 25); experiment: Search of factor that maintains property of retina at preparation into sheet again (Example 18); details: compared with PBS control; 10 days after seeding
# Description: as §1, with “aggregates (NR)” for “aggregates”, “25” for “31”, “prepared” for “prepared as”, “pipetting, and sorting was carried out with Rx::Venus as an index using Cell sorter ARIAII (Becton, Dickinson and Company).” for “pipetting.”
# 3 days after seeding, the medium was similarly replaced so as to maintain the concentrations of the low-molecular compounds or the proteins described in Tables 1 and 2. […] 10 days after seeding, fixation was performed in 4% PFA, and the evaluation of the cells after sorting was conducted with Rx::Venus as an index under a fluorescence microscope (BZ-X810 manufactured by Keyence Corp.).
# [5] = system: single cell suspension of dispersed retinal cells (KhES-1-derived); experiment: Layer structure formation-promoting factor: reformed aggregates, immunostained sections (Example 3); details: 300 nM SAG in addition to 3 μM CHIR99021
# Description: The aggregates of Day 26 from initiation of the suspension culture prepared as in Example 1 were washed with PBS, and a neuronal cell dispersion solution (manufactured by FUJIFILM Wako Pure Chemical Corp.) was added. After incubation at 37° C., they were dispersed into single cells by pipetting. These cells were suspended in 100 μL of a serum-free medium so as to become 3.0×10^4 cells per well of a non-cell adhesive 96-well culture plate (trade name: PrimeSurface 96-well V-bottom plate, manufactured by Sumitomo Bakelite Co., Ltd.), and suspension-cultured at 37° C. and 5% CO2.
# The aggregates of Day 15 (corresponding to Differentiation Day 41) and Day 28 (corresponding to Differentiation Day 54) after suspension culture for aggregate reforming were fixed in 4% PFA, and frozen sections were prepared. These frozen sections were subjected to immunostaining using DAPI and anti-Chx10 antibody (trade name: Anti CHX10 Antibody, Exalpha Biologicals Inc.), anti-β-catenin antibody (R&D Systems, Inc.), anti-collagen IV antibody (Abcam plc), anti-Zo-1 antibody (Invitrogen Corp.), anti-Ki67 antibody (Becton, Dickinson and Company), anti-Pax6 antibody (BioLegend, Inc.), anti-RxR-γ (RxRg) antibody (Spring Bioscience Corp.), anti-CRX antibody (Abnova Corp.), anti-NRL antibody (R&D Systems, Inc.), anti-recoverin antibody (manufactured by Proteintech Group, Inc.), anti-Islet-1 antibody (Developmental Studies Hybridoma Bank (DSHB)), anti-GS antibody (Sigma-Aldrich Co., LLC), anti-Brn3 antibody (Santa Cruz Biotechnology), and anti-calretinin antibody (R&D Systems, Inc.).
# These immunostained sections were observed under a bright field microscope and a fluorescence microscope (BZ-X810 manufactured by Keyence Corp.) and a confocal laser scanning fluorescence microscope (SP-8 manufactured by Leica), and the results are shown in FIGS. 11 to 20. […] From FIGS. 19 and 20, it was confirmed that RxR-Y(RxRg)-positive and CRX-positive cone progenitor cells and recoverin-positive and CRX-positive photoreceptor progenitor cells were differentiated, and the differentiation of Islet-1-positive and Brn3-positive retinal ganglion cells and calretinin-positive amacrine cells was also confirmed.
# [6] = system: single cells dispersed from KhES-1- and 1231A3-derived aggregates; experiment: Aggregate proliferation-promoting factor: aggregate area in suspension culture with Y-27632 (Example 2); details: SAG 300 nM or CHIR99021 3 μM in addition to 10 μM Y-27632; Day 1, 7, 14
# Description: The aggregates of Day 20 (1231A3) and Day 27 (KhES-1) from initiation of the suspension culture prepared as in Example 1 were washed with PBS, and a neuronal cell dispersion solution (manufactured by FUJIFILM Wako Pure Chemical Corp.) was added. After incubation at 37° C., they were dispersed into single cells by pipetting. These cells were suspended in 100 μL of a serum-free medium containing 10 μM Y-27632 (FUJIFILM Wako Pure Chemical Corp.) so as to become 2 to 5×10^5 cells per well of a non-cell adhesive 96-well culture plate (trade name: PrimeSurface 96-well V-bottom plate, manufactured by Sumitomo Bakelite Co., Ltd.), and suspension-cultured at 37° C. and 5% CO2. […] The reformed states of the aggregates were observed under a bright field microscope and a fluorescence microscope (BZ-X810 manufactured by Keyence Corp.) on Day 1, Day 7, and Day 14 after suspension culture for aggregate reforming. The areas of the aggregates were measured in Image J. The results of the KhES-1-derived cells are shown in FIG. 6 (an average value from 12 […] measured). The results of the 1231A3-derived cells in which the reformed states of the aggregates of Day 1 after suspension culture were observed are shown in FIG. 7.
# [7] = system: KhES-1 Rx::Venus aggregates (NR) of Day 26; experiment: CD39 expression analysis with different concentrations of SAG at start of differentiation (Example 24)
# Description: The morphology of aggregates (NR) of Day 26 from initiation of the suspension culture prepared by adding (1) 0 nM, (2) 30 nM, or (3) 300 nM SAG at the start of differentiation was observed under a microscope.
# The aggregates were dispersed into single cells using a neuronal cell dispersion solution, and FACS analysis was conducted as to the expression of CD39 and CXCR4 using anti-CD39-APC conjugate antibody (Miltenyi Biotec) and anti-CXCR4-APC conjugate antibody (Miltenyi Biotec). The percentage of an expressing cell population was measured using FACSCantoII (BD Biosciences), and analysis was conducted using FlowJo. These aggregates were fixed in 4% PFA, and sections were prepared and then subjected to staining using anti-ALDH1A1 antibody (R&D Systems, Inc.), anti-CoupTF1 antibody (Perseus Proteomics Inc. (PPMX)), anti-LHX2 antibody (manufactured by Merck Millipore), anti-Chx10 antibody (manufactured by Exalpha Biologicals Inc.), anti-Pax2 antibody (manufactured by Covance), and anti-NKX2.1 antibody (manufactured by Leica).
compound,measurement,setting,value
C[C@@H](N)[C@H]1CC[C@H](C(=O)Nc2ccncc2)CC1 [Y-27632],early aggregate reforming,[1],aggregates were reformed from Day 1 to Day 2
EGF: growth factor added at 20 ng/ml,maintenance of Rx::Venus-positive cells,[2],Rx::Venus-positive cells were widely maintained
Nc1ncnc2c1ncn2[C@@H]1O[C@H](COP(=O)(O)OP(=O)([O-])OP(=O)([O-])O)[C@@H](O)[C@H]1O.[Na+].[Na+] [ATP],expression of CD39 (FACS),[3],enhancing the expression of CD39
same,expression of CXCR4 (FACS),[3],decreasing the expression of CXCR4
"O=C(Nc1cccc2cccnc12)c1ccc(N2C(=O)[C@@H]3[C@H](C2=O)[C@@H]2C=C[C@H]3C2)cc1 [IWR1 endo, 4-[(3aR,4S,7R,7aS)-1,3,3a,4,7,7a-hexahydro-1,3-dioxo-4,7-methano-2H-isoindol-2-yl]-N-8-quinolinyl-benzamide, reference compound]",expression intensity of Rx::Venus,[4],high expression intensity of Rx::Venus
"FGF2: fibroblast growth factor, FGF signaling pathway agonist",maintenance of Rx::Venus-positive cells,[2],Rx::Venus-positive cells were widely maintained
same,expression intensity of Rx::Venus,[4],high expression intensity of Rx::Venus
CNC1CCC(N(Cc2cccc(-c3ccncc3)c2)C(=O)c2sc3ccccc3c2Cl)CC1 (centres unmarked) [SAG],size of aggregates,[5],aggregates were larger
same,size of reformed aggregates versus only Y-27632,[6],larger aggregates were reformed
same,morphology of aggregates,"[7]; 0 nM and 30 nM SAG compared with 300 nM SAG at dd0, Day 26",aggregates were larger and a layer structure was clearer
same,expression of CD39 (FACS),[7]; 300 nM SAG at dd0,CD39 was expressed
same,expression of CXCR4 (FACS),[7]; 300 nM SAG at dd0,low expression of CXCR4 was observed
same,expression of dorsal marker ALDH1A1,[7]; addition of SAG on dd0,Decrease in expression of a dorsal marker ALDH1A1
same,expression of ventral marker CoupTF1,[7]; addition of SAG on dd0,increase in expression of a ventral marker CoupTF1

# — patent publication US20250019652A1, “PRODUCTION METHOD FOR SHEET-LIKE RETINAL TISSUE” (RIKEN, priority 2021, published 2025)
